Source: patent publication US8088815B2, “Spiroindolinone pyrrolidines” (Hoffman-La Roche Inc., priority 2009, dated 2012)

Target: interaction between p53 and MDM2 proteins (Homo sapiens, UniProt Q00987)
Assay: HTRF assay of inhibition of the p53-MDM2 interaction (GST-MDM2 / biotinylated p53 peptide)
Format: binding
Details: recombinant GST-tagged MDM2 and biotinylated p53 peptide, bsa:0.02%
Description: The ability of the compounds to inhibit the interaction between p53 and MDM2 proteins was measured by an HTRF (homogeneous time-resolved fluorescence) assay in which recombinant GST-tagged MDM2 binds to a peptide that resembles the MDM2-interacting region of p53. Binding of GST-MDM2 protein and p53-peptide (biotinylated on its N-terminal end) is registered by the FRET (fluorescence resonance energy transfer) between Europium (Eu)-labeled anti-GST antibody and streptavidin-conjugated Allophycocyanin (APC).
Add 10 uL diluted compounds (1:5 dilution in reaction buffer) to each well, mix by shaking. Add 20 uL biotinylated p53 peptide (180 nM working solution) in reaction buffer to each well and mix on shaker. Incubate at 37° C. for 1 h. Add 20 uL streptavidin-APC and Eu-anti-GST antibody mixture (6 nM Eu-anti-GST and 60 nM streptavidin-APC working solution) in TBS buffer with 0.2% BSA, shake at room temperature for 30 minutes and read using a TRF-capable plate reader at
665 and 615 nm (Victor 5, Perkin ElmerWallac). If not specified, the reagents were purchased from Sigma Chemical Co.

Sequence of interaction between p53 and MDM2 proteins (Q00987 whole entry): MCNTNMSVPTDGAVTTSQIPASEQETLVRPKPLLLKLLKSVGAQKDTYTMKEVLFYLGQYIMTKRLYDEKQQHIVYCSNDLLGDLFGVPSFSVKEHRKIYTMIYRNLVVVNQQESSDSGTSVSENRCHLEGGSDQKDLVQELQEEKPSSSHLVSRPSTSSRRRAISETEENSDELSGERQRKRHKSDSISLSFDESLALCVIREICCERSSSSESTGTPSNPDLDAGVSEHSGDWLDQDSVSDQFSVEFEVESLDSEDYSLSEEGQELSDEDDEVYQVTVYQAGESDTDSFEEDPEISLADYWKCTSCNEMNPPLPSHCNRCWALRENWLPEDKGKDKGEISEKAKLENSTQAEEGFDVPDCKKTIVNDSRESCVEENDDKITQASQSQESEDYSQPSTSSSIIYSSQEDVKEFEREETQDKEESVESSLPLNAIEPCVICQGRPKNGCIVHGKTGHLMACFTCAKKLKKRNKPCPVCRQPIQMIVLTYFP

Row | SMILES | IC50 [nM]
1 | COC(=O)c1ccc(NC(=O)[C@@H]2N[C@@H](CC(C)(C)C)[C@@]3(C(=O)Nc4cc(Cl)ccc43)[C@H]2c2cccc(Cl)c2F)cc1 (racemic) [Example 5, rac-4-{[(2′S,3′R,4′S,5′R)-6-chloro-4′-(3-chloro-2-fluoro-phenyl)-2′-(2,2-dimethyl-propyl)-2-oxo-1,2-dihydro-spiro[indole-3,3′-pyrrolidine]-5′-carbonyl]-amino}-benzoic acid methyl ester] | 16
2 | CC(C)(C)C[C@@H]1N[C@@H](C(=O)Nc2ccc(C(=O)O)cc2)[C@H](c2cccc(Cl)c2F)[C@]12C(=O)Nc1cc(Cl)ccc12 (racemic) [Example 6, rac-4-{[(2′S,3′R,4′S,5′R)-6-chloro-4′-(3-chloro-2-fluoro-phenyl)-2′-(2,2-dimethyl-propyl)-2-oxo-1,2-dihydro-spiro[indole-3,3′-pyrrolidine]-5′-carbonyl]amino}-benzoic acid] | 11
3 | CC(C)(C)C[C@@H]1N[C@@H](C(=O)Nc2ccc(C#N)cc2)[C@H](c2cccc(Cl)c2F)[C@]12C(=O)Nc1cc(Cl)ccc12 (racemic) [Example 7, rac-(2′S,3′R,4′S,5′R)-6-chloro-4′-(3-chloro-2-fluoro-phenyl)-2′-(2,2-dimethyl-propyl)-2-oxo-1,2-dihydro-spiro[indole-3,3′-pyrrolidine]-5′-carboxylic acid (4-cyano-phenyl)-amide] | 14
4 | CC(C)(C)C[C@@H]1N[C@@H](C(=O)Nc2ccc(C(N)=O)cc2)[C@H](c2cccc(Cl)c2F)[C@]12C(=O)Nc1cc(Cl)ccc12 (racemic) [Example 8, rac-(2′S,3′R,4′S,5′R)-6-chloro-4′-(3-chloro-2-fluoro-phenyl)-2′-(2,2-dimethyl-propyl)-2-oxo-1,2-dihydro-spiro[indole-3,3′-pyrrolidine]-5′-carboxylic acid (4-carbamoyl-phenyl)-amide] | 7
5 | CC(C)(C)C[C@@H]1N[C@@H](C(=O)Nc2ccc(S(C)(=O)=O)cc2)[C@H](c2cccc(Cl)c2F)[C@]12C(=O)Nc1cc(Cl)ccc12 (racemic) [Example 10, rac-(2′S,3′R,4′S,5′R)-6-chloro-4′-(3-chloro-2-fluoro-phenyl)-2′-(2,2-dimethyl-propyl)-2-oxo-1,2-dihydro-spiro[indole-3,3′-pyrrolidine]-5′-carboxylic acid (4-methanesulfonyl-phenyl)-amide] | 13
6 | CC(=O)c1ccc(NC(=O)[C@@H]2N[C@@H](CC(C)(C)C)[C@@]3(C(=O)Nc4cc(Cl)ccc43)[C@H]2c2cccc(Cl)c2F)cc1 (racemic) [Example 11, rac-(2′S,3′R,4′S,5′R)-6-chloro-4′-(3-chloro-2-fluoro-phenyl)-2′-(2,2-dimethyl-propyl)-2-oxo-1,2-dihydro-spiro[indole-3,3′-pyrrolidine]-5′-carboxylic acid (4-acetyl-phenyl)-amide] | 13
7 | CC(C)(C)C[C@@H]1N[C@@H](C(=O)Nc2ccc(F)cc2)[C@H](c2cccc(Cl)c2F)[C@]12C(=O)Nc1cc(Cl)ccc12 (racemic) [Example 13, rac-(2′S,3′R,4′S,5′R)-6-chloro-4′-(3-chloro-2-fluoro-phenyl)-2′-(2,2-dimethyl-propyl)-2-oxo-1,2-dihydro-spiro[indole-3,3′-pyrrolidine]-5′-carboxylic acid (4-fluoro-phenyl)-amide] | 19
8 | COC(=O)c1ccc(NC(=O)[C@@H]2N[C@@H](CC(C)(C)C)[C@@]3(C(=O)Nc4cc(Cl)ccc43)[C@H]2c2cccc(Cl)c2F)s1 (racemic) [Example 14, rac-5-{[(2′S,3′R,4′S,5′R)-6-chloro-4′-(3-chloro-2-fluoro-phenyl)-2′-(2,2-dimethyl-propyl)-2-oxo-1,2-dihydro-spiro[indole-3,3′-pyrrolidine]-5′-carbonyl]amino}-thiophene-2-carboxylic acid methyl ester] | 22
